This note sets out measurements from patent US20110028455A1, “Indole-substituted 3-cyanopyridines As Kinase Inhibitors” (Wyeth LLC, priority 2007, published 2011).

Broadly, the half-life is the time in which the quantity being followed falls by half. As usually defined, the pIC50 is the IC50 on a negative log10 scale, so that one unit is a factor of ten. By melting point is commonly meant the temperature, or range, at which the solid turns liquid.

pIC50: −log10 of the molar value. Like-named read-outs stand apart in the source and are kept apart here. A value given as a limit tells only on which side of the number the result lay.

Data set [1] can be described thus: Metabolic stability in rat liver microsomes. The class given is in vitro ADME. Conditions: 30 minutes incubation, remaining compound by HPLC. Here is the method:
In order to probe the metabolic stability of the compounds of the invention, a series of compounds were selected for stability testing in rat liver microsomes. A DMSO solution of each compound was incubated for 30 minutes in the presence of rat liver homogenate. The percentage of remaining compound was assessed by HPLC. An approximate half life was calculated from the percentage of remaining compound. Table II, below, illustrates a comparison of the in vitro microsomal half life of the selected compounds verses a series of related compounds lacking the C-6 alkyl group. […] It is generally accepted in the industry that improved in vitro metabolic stability frequently translates into improved in vivo metabolic stability. Improved metabolic stability may translate to increased in vivo exposure levels.
On the technique in general: Liver microsomes are vesicles of endoplasmic reticulum, rich in cytochrome P450 enzymes.

Data set [2] addresses T1, human PKCθ full length enzyme (Homo sapiens, UniProt Q04759).
T1 construct: human PKCθ full length enzyme (Panvera Cat# P2996); purchased Panvera P2996
Put plainly: PKCθ IMAP Assay. The class given is biochemical. Conditions: PKCθ 1 nM; ATP 6 μM; peptide 100 nM; DMSO 5%; 25 minutes at room temperature; FP readout; read-out: PKC-Theta Mean IC50. Here is the method:
The materials used include the following: human PKCθ full length enzyme (Panvera Cat# P2996); substrate peptide: 5FAM-RFARKGSLRQKNV-OH (Molecular Devices, RP7032); ATP (Sigma Cat # A2383); DTT (Pierce, 20291); 5× kinase reaction buffer (Molecular Devices, R7209); 5× binding buffer A (Molecular Devices, R7282), 5× binding buffer B (Molecular Devices, R7209); IMAP Beads (Molecular Devices, R7284); and 384-well plates (Corning Costar, 3710).
The reaction buffer was prepared by diluting the 5× stock reaction buffer and adding DTT to obtain a concentration of 3.0 mM. The binding buffer was prepared by diluting the 5× binding buffer A. A master mix solution was prepared using a 90% dilution of the reaction buffer containing 2×ATP (12 uM) and 2× peptide (200 nm). Compounds were diluted in DMSO to 20× of the maximum concentration for the IC50 measurement. 27 μl of the master mix solution for each IC50 curve was added to the first column in a 384-well plate and 3 μl of 20× compound in DMSO was added to each well.
The final concentration of compound was 2× and 10% DMSO. DMSO was added to the rest of the master mix to increase the concentration to 10%. 10 μl of the master mix containing 10% DMSO was added to the rest of the wells on the plate except the 2nd column. 20 μl was transferred from the first column to the 2nd column. The compounds were serially diluted in 2:1 ratio starting from the 2nd column. A 2×(2 nM) PKCθ solution was made in the reaction buffer. 10 μl of the PKCθ solution was added to every well to achieve these final concentrations: PKCθ-1 nM; ATP-6 μM; peptide-100 nM; DMSO-5%. Samples were incubated for 25 minutes at room temperature. The binding reagent was prepared by diluting the beads in 1× binding buffer to 800:1. 50 μl of the binding reagent was added to every well and incubated for 20 minutes. FP was measured using Envision2100 (PerkinElmer Life Sciences). Wells with no ATP and wells with no enzyme were used as controls.

Setting [3] is: related compounds lacking the C-6 alkyl group, read-out: Rat Microsome Stability of 6-H cyanopyridine Compounds (approximate half life).
Setting [4] is: 6-Me compounds of the invention, read-out: Rat Microsome Stability of 6-Me cyanopyridine Compounds (approximate half life).

T1 sequence (Q04759 whole entry): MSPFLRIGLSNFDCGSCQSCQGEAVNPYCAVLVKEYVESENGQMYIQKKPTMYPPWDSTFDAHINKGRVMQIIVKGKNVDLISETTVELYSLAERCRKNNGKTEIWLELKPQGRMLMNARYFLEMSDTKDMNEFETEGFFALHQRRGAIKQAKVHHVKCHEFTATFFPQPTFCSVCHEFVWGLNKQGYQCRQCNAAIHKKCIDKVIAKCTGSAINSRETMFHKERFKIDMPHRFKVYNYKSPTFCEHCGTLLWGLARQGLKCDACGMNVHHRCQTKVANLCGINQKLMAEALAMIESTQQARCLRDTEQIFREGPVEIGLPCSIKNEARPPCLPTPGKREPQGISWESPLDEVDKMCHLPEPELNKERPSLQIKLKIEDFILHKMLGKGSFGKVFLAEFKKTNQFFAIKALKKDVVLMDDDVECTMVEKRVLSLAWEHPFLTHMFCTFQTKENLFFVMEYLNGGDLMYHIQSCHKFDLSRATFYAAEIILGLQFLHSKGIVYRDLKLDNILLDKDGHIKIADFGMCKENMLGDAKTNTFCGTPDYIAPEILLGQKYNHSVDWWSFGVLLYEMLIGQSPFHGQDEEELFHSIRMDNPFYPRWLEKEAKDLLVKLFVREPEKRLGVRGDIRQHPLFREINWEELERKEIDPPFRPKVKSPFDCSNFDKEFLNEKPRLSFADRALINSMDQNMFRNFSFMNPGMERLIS

For `Cc1c(Nc2c(C#N)cncc2-c2ccc(OCCN3CCC(N4CCOCC4)CC3)cc2)ccc2[nH]ccc12`, in data set [1] (setting [3]), the half-life was 10 min.
On the same count and under the same terms, the result for `Cc1c(Nc2c(C#N)cncc2-c2ccc(OCCN3CCC(c4ccccc4)CC3)cc2)ccc2[nH]ccc12` reads 5 min; that for `Cc1c(Nc2c(C#N)cncc2-c2ccc(OCCNCc3ccccn3)cc2)ccc2[nH]ccc12`, 3 min; that for `Cc1c(Nc2c(C#N)cncc2-c2ccc(OCCNCCCn3ccnc3)cc2)ccc2[nH]ccc12`, 22 min.
Same read-out and setting: the value for `Cc1c(Nc2c(C#N)cncc2-c2ccc(OCCNCc3ccccc3)cc2)ccc2[nH]ccc12` was 6 min.
Still for that read-out and setting: the result for `Cc1c(Nc2c(C#N)cncc2-c2ccc(OCCN3CCN(CCN(C)C)CC3)cc2)ccc2[nH]ccc12` reads above 30 min; that for `Cc1c(Nc2c(C#N)cncc2-c2ccc(OCCN3CCN(CCO)CC3)cc2)ccc2[nH]ccc12`, 11 min.
For `CCN1CCN(CCOc2ccc(-c3cncc(C#N)c3Nc3ccc4[nH]ccc4c3C)cc2)CC1`, the half-life in data set [1] (setting [3]) was 8 min.
On the same count and under the same terms, the value for `Cc1c(Nc2c(C#N)cncc2-c2ccc(OCCN3CCC(N4CCCC4)CC3)cc2)ccc2[nH]ccc12` was above 30 min; that for `Cc1c(Nc2c(C#N)cncc2-c2ccc(OCCN3CCOCC3)cc2)ccc2[nH]ccc12` was 8 min.
The same measure, in the same setting: the result for `Cc1c(Nc2c(C#N)cncc2-c2ccc(OCCNC3CCN(C)CC3)cc2)ccc2[nH]ccc12` reads above 30 min; that for `Cc1c(Nc2c(C#N)cncc2-c2ccc(OCCNCC3CCN(C)CC3)cc2)ccc2[nH]ccc12`, above 30 min.
Still for that read-out and setting: the result for `Cc1c(Nc2c(C#N)cncc2-c2ccc(OCCN3CCCC3)cc2)ccc2[nH]ccc12` reads 21 min; that for `Cc1c(Nc2c(C#N)cncc2-c2ccc(OCCN3CCN(C)CC3)cc2)ccc2[nH]ccc12`, 14 min.
Consider `CCOCCNCCOc1ccc(-c2cncc(C#N)c2Nc2ccc3[nH]ccc3c2C)cc1`, for which, in data set [1] (setting [3]), the half-life was found to be 7 min.
In the case of “5-{4-[2-(4-cyclopentylpiperazin-1-yl)ethoxy]phenyl}-6-methyl-4-[(4-methyl-1H-indol-5-yl)amino]nicotinonitrile [Example 37]”, the pIC50 in data set [2] was 7.52. In addition, the “Rat Microsome Stability of 6-Me cyanopyridine Compounds (approximate half life)” value in data set [1] (6-Me compounds of the invention) is on record as above 30 min.
Consider `COc1ccc(-c2c(C)ncc(C#N)c2Nc2cccc3[nH]ccc23)cc1OC` [Example 8, 5-(3,4-dimethoxyphenyl)-4-(1H-indol-4-ylamino)-6-methylnicotinonitrile], for which the melting point fell in the range of 182 to 183 °C. Also, the pIC50 in data set [2] was 6.82.
Regarding `CCOCCNCCOc1ccc(-c2c(C)ncc(C#N)c2Nc2ccc3[nH]ccc3c2C)cc1` [Example 19, 5-(4-{2-[(2-ethoxyethyl)amino]ethoxy}phenyl)-6-methyl-4-[(4-methyl-1H-indol-5-yl)amino]nicotinonitrile], in data set [2], the pIC50 was 7.34. In data set [1] (setting [4]), the half-life is above 30 min.
On the same counts, the results for `Cc1ncc(C#N)c(Nc2ccc3[nH]ccc3c2C)c1-c1ccc(OCCN2CCCC2)cc1` [Example 20, 6-methyl-4-[(4-methyl-1H-indol-5-yl)amino]-5-[4-(2-pyrrolidin-1-ylethoxy)phenyl]nicotinonitrile] are 7.60 and above 30 min.
As for `Cc1ncc(C#N)c(Nc2ccc3[nH]ccc3c2C)c1-c1ccc(OCCNC2CCN(C)CC2)cc1` [Example 22, 6-methyl-4-[(4-methyl-1H-indol-5-yl)amino]-5-(4-{2-[(1-methylpiperidin-4-yl)amino]ethoxy}phenyl)nicotinonitrile], the pIC50 in data set [2] is 8.05. Further, the half-life in data set [1] (setting [4]) was above 30 min.
The corresponding values for `Cc1ncc(C#N)c(Nc2ccc3[nH]ccc3c2C)c1-c1ccc(OCCNCC2CCN(C)CC2)cc1` [Example 23, 6-methyl-4-[(4-methyl-1H-indol-5-yl)amino]-5-[4-(2-{[(1-methylpiperidin-4-yl)methyl]amino}ethoxy)phenyl]nicotinonitrile] are 8.10 and above 30 min.
The corresponding values for `Cc1ncc(C#N)c(Nc2ccc3[nH]ccc3c2C)c1-c1ccc(OCCN2CCC(c3ccccc3)CC2)cc1` [Example 29, 6-methyl-4-[(4-methyl-1H-indol-5-yl)amino]-5-{4-[2-(4-phenylpiperidin-1-yl)ethoxy]phenyl}nicotinonitrile] are 6.57 and 20 min.
Regarding `Cc1ncc(C#N)c(Nc2ccc3[nH]ccc3c2C)c1-c1ccc(OCCN2CCOCC2)cc1` [Example 30, 6-methyl-4-[(4-methyl-1H-indol-5-yl)amino]-5-[4-(2-morpholin-4-ylethoxy)phenyl]nicotinonitrile], the negative logarithm of the IC50 (pIC50) in data set [2] is 6.91. Besides, in data set [1] (setting [4]), the half-life worked out at 17 min.
On the same counts, the results for `CCN1CCN(CCOc2ccc(-c3c(C)ncc(C#N)c3Nc3ccc4[nH]ccc4c3C)cc2)CC1` [Example 33, 5-{4-[2-(4-ethylpiperazin-1-yl)ethoxy]phenyl}-6-methyl-4-[(4-methyl-1H-indol-5-yl)amino]nicotinonitrile] are 7.36 and above 30 min.
The corresponding values for `Cc1ncc(C#N)c(Nc2ccc3[nH]ccc3c2C)c1-c1ccc(OCCN2CCN(CCO)CC2)cc1` [Example 35, 5-(4-{2-[4-(2-hydroxyethyl)piperazin-1-yl]ethoxy}phenyl)-6-methyl-4-[(4-methyl-1H-indol-5-yl)amino]nicotinonitrile] are 7.36 and above 30 min.
For `Cc1ncc(C#N)c(Nc2ccc3[nH]ccc3c2C)c1-c1ccc(OCCN2CCN(CCN(C)C)CC2)cc1` [Example 36, 5-[4-(2-{4-[2-(dimethylamino)ethyl]piperazin-1-yl}ethoxy)phenyl]-6-methyl-4-[(4-methyl-1H-indol-5-yl)amino]nicotinonitrile], the pIC50 in data set [2] was 7.48. Also, the half-life in data set [1] (setting [4]) was above 30 min.
For `Cc1ncc(C#N)c(Nc2ccc3[nH]ccc3c2C)c1-c1ccc(OCCNCCCn2ccnc2)cc1` [Example 38, 5-[4-(2-{[3-(1H-imidazol-1-yl)propyl]amino}ethoxy)phenyl]-6-methyl-4-[(4-methyl-1H-indol-5-yl)amino]nicotinonitrile], in data set [2], the pIC50 is 7.85. The half-life in data set [1] (setting [4]) is above 30 min.
As to `Cc1ncc(C#N)c(Nc2ccc3[nH]ccc3c2C)c1-c1ccc(OCCNCc2ccccc2)cc1` [Example 39, 5-{4-[2-(benzylamino)ethoxy]phenyl}-6-methyl-4-[(4-methyl-1H-indol-5-yl)amino]nicotinonitrile], the pIC50 in data set [2] was 7.14. For the same molecule, the half-life in data set [1] (setting [4]) is 14 min.
As for `Cc1ncc(C#N)c(Nc2ccc3[nH]ccc3c2C)c1-c1ccc(OCCNCc2ccccn2)cc1` [Example 40, 6-methyl-4-[(4-methyl-1H-indol-5-yl)amino]-5-(4-{2-[(pyridin-2-ylmethyl)amino]ethoxy}phenyl)nicotinonitrile], in data set [2], the pIC50 is 7.54. For the same molecule, the half-life in data set [1] (setting [4]) was 13 min.
Regarding `Cc1ncc(C#N)c(Nc2ccc3[nH]ccc3c2C)c1-c1ccc(C=O)o1` [Example 67, 5-(5-formylfuran-2-yl)-6-methyl-4-[(4-methyl-1H-indol-5-yl)amino]pyridine-3-carbonitrile], the negative logarithm of the IC50 (pIC50) in data set [2] is 7.68.
Take `Cc1ncc(C#N)c(Nc2ccc3[nH]ccc3c2C)c1-c1ccc(CN2CCN(C)CC2)o1` [Example 68, 6-methyl-4-[(4-methyl-1H-indol-5-yl)amino]-5-{5-[(4-methylpiperazin-1-yl)methyl]furan-2-yl}pyridine-3-carbonitrile]: the pIC50 in data set [2] was 7.70.
`Cc1ncc(C#N)c(Nc2ccc3[nH]ccc3c2C)c1-c1ccc(C=O)s1` [Example 69, 5-(5-formylthiophen-2-yl)-6-methyl-4-[(4-methyl-1H-indol-5-yl)amino]pyridine-3-carbonitrile]: the negative-log IC50 (pIC50) in data set [2] was 8.32.
With `Cc1ncc(C#N)c(Nc2ccc3[nH]ccc3c2C)c1-c1ccc(CN2CCN(C)CC2)s1` [Example 70, 6-methyl-4-[(4-methyl-1H-indol-5-yl)amino]-5-{5-[(4-methylpiperazin-1-yl)methyl]thiophen-2-yl}pyridine-3-carbonitrile], the pIC50 in data set [2] is 7.85.
